# Test results reported in US20250213547A1, “METHODS OF TREATING NEUROLOGICAL DISEASES” (priority 2022, published 2025).
# Read-outs that look alike come from different tables or passages of the source.
# How the values were obtained:
# plasma 24HC = test: Healthy Japanese subjects, Part 1: plasma 24HC pharmacodynamics; type: in vivo, human; conditions: for AUEC24 of plasma 24HC / AUECt of plasma 24HC (time 0 to last sampling time point) / E24 of plasma 24HC (observed effect at 24 hours) / Emax of plasma 24HC (maximum drug-induced effect): mean (% CV); for Emax: Homo sapiens, read-out: % change from Baseline in Emax of plasma 24HC; for Emax / % change from Baseline in AUEC24 of plasma 24HC / % change from Baseline in E24 of plasma 24HC: mean; for Time to Emax of plasma 24HC: median (min-max)
# Protocol: On Day 1 of each dose level, a single dose of TAK-935 or placebo was administered, and safety, PK and PD were evaluated.
# Blood samples for PD analysis of plasma 24HC level were collected into blood collection tubes (vacutainer) containing the anticoagulant K2EDTA.
# The PD assessments described below were performed at the time points stipulated in the schedule of procedures. The additional PD endpoints included the following PD parameters for plasma 24HC: […]
# [1] = tested on: seizure frequency in pediatric patients with Dravet syndrome or Lennox-Gastaut syndrome; test: ELEKTRA: percent change in seizure frequency from baseline; type: in vivo, human; conditions: for Number of patients with 25% reduction in seizures (responders) / Number of patients with 50% reduction in seizures (responders) / Number of patients with 75% reduction in seizures (responders) / Number of patients with 100% reduction in seizures (responders): maintenance period; for Median percent change in seizure frequency from baseline / Range of percent change in seizure frequency from baseline / seizure frequency change from baseline versus placebo: ELEKTRA; for Median percent change in seizure frequency from baseline / Range of percent change in seizure frequency from baseline: N 64; for seizure frequency change from baseline versus placebo: pediatric DEE patients
# Description: Other inclusion criteria were body weight ≥10 kg, currently taking a fixed dosage of 1 to 4 antiseizure medications, and failure to remain seizure free after trying at least two antiseizure medications. Convulsive seizures include focal to bilateral tonic-clonic with impaired awareness, hemi-clonic, simultaneous bilateral clonic, and generalized tonic-clonic seizures. Drop seizures can involve the entire body, trunk, or head which leads to falling. […] Approximately 126 patients ages ≥2 and ≤17 years were enrolled in the study. The study included two main phases, a 4-6 week screening and baseline period, and a 20-week treatment period. Patients received doses twice a day in a tablet formulation. The starting dose was adjusted according to the patient's body weight (Table 17).
# During the first 8 weeks of treatment patient dosing was a titrated for individual optimization. The remaining 12-weeks of treatment consisted of a maintenance phase. The study began with treating patients ≥9 years of age for one month before treating younger patients. Blood was collected for PK analysis on the first dosage day within one hour of the morning dose, and 30 minutes, and 1, 2, 3, and 4 hours post-dose. Subsequent blood sampling took place before the morning dose and 30 minutes post-dose. Blood samples were obtained at scheduled times for determining PK profile and Tmax, which is the time Cmax was reached. A patient's seizure frequency was recorded before and during the trial to calculate percent change from baseline.
# The ELEKTRA study is described in the specification and in examples 12 and 13. […] Statistical significance was computed using a Rank Transformed Analysis of Covariance (ANCOVA) with a 2-side p-value, while adjusting for baseline seizure frequency and indication.
# clinical = type: in vivo; conditions: human; for Cmax: mean
# Description: The first-in-human clinical trial administered a single-rising dose and included 48 healthy men and women aged 19-55 with a body mass index between 18 kg/m2 and 30 kg/m2. […] Examples 2-5 herein further describes the trial protocol and the results, including data on the bioavailability of solution versus tablet (example 3), fed versus fasting patients (example 4), and PD data (example 5). The data obtained from this trial informed on the safe dosage range for future trials, and was included in the first-step of the modeling analysis described in example 12.
# The study enrolled 48 subjects in the single rising dose study. Subjects were sorted into six cohorts and randomly assigned to treatment or placebo groups.
# A prior study of soticlestat dosing in dogs guided the safety margin of minimal and maximal single dose selection for human subjects. An initial dosage of 10 mg provided a 44-fold safety margin relative to the maximum safe dosage in dogs. […] Each dose trial contained two placebo subjects. Ascending doses were tested in 2 sentinel subjects at a time to determine safety and tolerability before including the full cohort.
# The analytes and internal standards were extracted by solid phase extraction or by dilution. […] Multiple analyses of pooled samples (n=6) verified intra- and inter-assay accuracy with an acceptance criteria of within 15% (CV≤15%) or 20% (CV≤20%) for the LLOQ. PK parameters were analyzed from plasma and urine concentration time data using standard non-compartmental analysis methods with Phoenix WinNonlin™ version 6.3 (Certara, Princeton, N.J. USA). All statistical analyses were performed using SAS software version 9.2 (SAS Institute Inc., Cary, N.C. USA).
# [2] = Dravet syndrome, Weeks 9-20, N 24
# [3] = both sexes, in vivo, po, 200 mg
# [4] = both sexes, in vivo, po, 600 mg
# [5] = both sexes, in vivo, po, 900 mg
# [6] = both sexes, in vivo, po, 1350 mg
structure (smiles),measurement,setting,value
O=C(c1cccnc1-c1ccncc1)N1CCC(O)(Cc2ccccc2)CC1 [soticlestat],maximum decrease in percent change from Baseline of mean AUEC24,"plasma 24HC; 1200 mg single dose, compared with placebo",approximately 11.4%
same,AUEC24 of plasma 24HC,"plasma 24HC; Day 1, single dose 200 mg",1017 (27.5) h*ng/mL
same,AUEC24 of plasma 24HC,"plasma 24HC; Day 1, single dose 600 mg",1311 (30.2) h*ng/mL
same,AUEC24 of plasma 24HC,"plasma 24HC; Day 1, single dose 1200 mg",898.3 (16.6) h*ng/mL
same,Emax,plasma 24HC; single dose 200 mg,-17.7%
same,Emax,plasma 24HC; single dose 600 mg,-21.4%
same,Emax,plasma 24HC; single dose 1200 mg,-29.7%
same,% change from Baseline in AUEC24 of plasma 24HC,plasma 24HC; single dose 200 mg,−8.875%
same,% change from Baseline in E24 of plasma 24HC,plasma 24HC; single dose 200 mg,−20.29%
same,AUECt of plasma 24HC (time 0 to last sampling time point),plasma 24HC; single dose 200 mg,1918 (26.0) h*ng/mL
same,E24 of plasma 24HC (observed effect at 24 hours),plasma 24HC; single dose 200 mg,39.95 (25.4) ng/mL
same,Emax of plasma 24HC (maximum drug-induced effect),plasma 24HC; single dose 200 mg,35.25 (24.3) ng/mL
same,Time to Emax of plasma 24HC,plasma 24HC; single dose 200 mg,48.00 (48.0-48.0) h
same,% change from Baseline in AUEC24 of plasma 24HC,plasma 24HC; single dose 600 mg,−8.482%
same,% change from Baseline in E24 of plasma 24HC,plasma 24HC; single dose 600 mg,−24.02%
same,AUECt of plasma 24HC (time 0 to last sampling time point),plasma 24HC; single dose 600 mg,2425 (31.2) h*ng/mL
same,E24 of plasma 24HC (observed effect at 24 hours),plasma 24HC; single dose 600 mg,48.47 (32.0) ng/mL
same,Emax of plasma 24HC (maximum drug-induced effect),plasma 24HC; single dose 600 mg,43.25 (35.3) ng/mL
same,Time to Emax of plasma 24HC,plasma 24HC; single dose 600 mg,48.00 (24.0-48.0) h
same,% change from Baseline in AUEC24 of plasma 24HC,plasma 24HC; single dose 1200 mg,−11.36%
same,% change from Baseline in E24 of plasma 24HC,plasma 24HC; single dose 1200 mg,−22.65%
same,AUECt of plasma 24HC (time 0 to last sampling time point),plasma 24HC; single dose 1200 mg,1627 (18.7) h*ng/mL
same,E24 of plasma 24HC (observed effect at 24 hours),plasma 24HC; single dose 1200 mg,33.57 (19.8) ng/mL
same,Emax of plasma 24HC (maximum drug-induced effect),plasma 24HC; single dose 1200 mg,27.30 (24.4) ng/mL
same,Time to Emax of plasma 24HC,plasma 24HC; single dose 1200 mg,48.00 (48.0-48.0) h
same,Median percent change in convulsive seizure frequency per 28 days from baseline,[1]; [2],−36.5%
same,Range of percent change in convulsive seizure frequency per 28 days from baseline,[1]; [2],(−100 to 84.1) %
same,Number of patients with 25% reduction in seizures (responders),"[1]; Dravet syndrome, N 24",66.7
same,Number of patients with 50% reduction in seizures (responders),"[1]; Dravet syndrome, N 24",41.7
same,Number of patients with 75% reduction in seizures (responders),"[1]; Dravet syndrome, N 24",20.8
same,Number of patients with 100% reduction in seizures (responders),"[1]; Dravet syndrome, N 24",8.3
same,Median percent change in seizure frequency from baseline,[1]; Weeks 0-20,−30.05%
same,Range of percent change in seizure frequency from baseline,[1]; Weeks 0-20,(−100-347.5) %
same,Median percent change in seizure frequency from baseline,[1]; Weeks 9-20,−27.76%
same,Range of percent change in seizure frequency from baseline,[1]; Weeks 9-20,(−100 to 160.6) %
same,Median percent change from baseline in drop seizure frequency per 28 days,"[1]; Lennox-Gastaut syndrome, Weeks 9-20, N 40",−18.46%
same,Number of patients with 25% reduction in seizures (responders),"[1]; Lennox-Gastaut syndrome, N 40",42.5
same,Number of patients with 50% reduction in seizures (responders),"[1]; Lennox-Gastaut syndrome, N 40",27.5
same,Number of patients with 75% reduction in seizures (responders),"[1]; Lennox-Gastaut syndrome, N 40",10
same,Number of patients with 100% reduction in seizures (responders),"[1]; Lennox-Gastaut syndrome, N 40",5
same,seizure frequency change from baseline versus placebo,[1],highly significant
same,seizure frequency change from baseline versus placebo,[1]; listed as Soticlestat,significantly decreased seizure frequency
same,CL renal,"clinical; both sexes, in vivo",3.83 to 10.3 mL/min
same,Tmax,"clinical; both sexes, in vivo, po",15 to 31.2 min
same,half-life,"clinical; both sexes, in vivo, po",49.2 to 430 min
same,Tmax,"clinical; both sexes, in vivo, po, 15 mg",15 min
same,Cmax,"clinical; both sexes, in vivo, po, 15 mg",43.5 ng/mL
same,AUC(0-inf),"clinical; both sexes, in vivo, po, 50 mg",172 ng·h/mL
same,AUC(0-t),"clinical; both sexes, in vivo, po, 50 mg",169 ng·h/mL
same,Tmax,"clinical; both sexes, in vivo, po, 50 mg",15 min
same,Vd/F,"clinical; both sexes, in vivo, po, 50 mg",1500 L
same,Cmax,"clinical; both sexes, in vivo, po, 50 mg",210 ng/mL
same,AUC(0-inf),clinical; [3],621 ng·h/mL
same,AUC(0-t),clinical; [3],563 ng·h/mL
same,Tmax,clinical; [3],15 min
same,Vd/F,clinical; [3],2240 L
same,Cmax,clinical; [3],571 ng/mL
same,Tmax,clinical; [4],31.2 min
same,Vd/F,clinical; [4],993 L
same,Cmax,clinical; [4],4550 ng/mL
same,AUC(0-inf),clinical; [5],7660 ng·h/mL
same,AUC(0-t),clinical; [5],7620 ng·h/mL
same,Vd/F,clinical; [5],1230 L
same,Cmax,clinical; [5],5080 ng/mL
same,AUC(0-inf),clinical; [6],13500 ng·h/mL
same,AUC(0-t),clinical; [6],13500 ng·h/mL
same,Vd/F,clinical; [6],852 L
same,Cmax,clinical; [6],7950 ng/mL
same,Vd/F,"clinical; both sexes, plasma, single oral solution dose 15 mg, read-out: Vz/F, mean",732 L
same,time of second smaller plasma peak post-dose,"clinical; both, in vivo",approximately 10 hours
same,"t1/2z, mean","clinical; both, in vivo, po, 15 mg",49.2 min
same,"t1/2z, mean","clinical; both, in vivo, po, 50 mg",179 min
same,"t1/2z, mean","clinical; both, in vivo, po, 200 mg",263 min
same,"AUC(0-t), mean","clinical; both, in vivo, po, 600 mg",5790 ng·h/mL
same,"AUC∞, mean","clinical; both, in vivo, po, 600 mg",5810 ng·h/mL
same,"t1/2z, mean","clinical; both, in vivo, po, 600 mg",286 min
same,"Tmax, median","clinical; both, in vivo, po, 900 mg",30 min
same,"t1/2z, mean","clinical; both, in vivo, po, 900 mg",430 min
same,"Cmax, mean","clinical; both, in vivo, po, 1350 mg",7953 ng/mL
same,"t1/2z, mean","clinical; both, in vivo, po, 1350 mg",319 min
same,"dose-proportionality slope, AUC(0-t) (log-log)",clinical; in vivo,"1.38 (1.28, 1.48)"
same,"dose-proportionality slope, AUC∞ (log-log)",clinical; in vivo,"1.42 (1.31, 1.53)"
same,"dose-proportionality slope, Cmax (log-log)",clinical; in vivo,"1.22 (1.11, 1.32)"
same,"CL/F, mean","clinical; in vivo, po, 15 mg",689 L/h
same,"CL/F, mean","clinical; in vivo, po, 50 mg",549 L/h
same,"CL/F, mean","clinical; in vivo, po, 200 mg",355 L/h
same,"CL/F, mean","clinical; in vivo, po, 600 mg",145 L/h
same,"CL/F, mean","clinical; in vivo, po, 900 mg",124 L/h
same,"CL/F, mean","clinical; in vivo, po, 1350 mg",112 L/h
